Assay: in vitro
Settings: human, hela cells, % viability

Going from `CN1CCN(CCCCC2(C)SC(NC3CCCCCC3)=NC2=O)CC1` (centres unmarked) [CBK113259] to `CC(C)(N)CC(=O)N1CCC(Cn2cncn2)(C2CCCCC2)CC1` [CBK136822], the viability at 28.5 h, 10 µM falls from 93.3% to 89.4%.

Compared with `COC(=O)[C@@H](C)NC(=O)[C@H]1CN(C(=O)Nc2ccccc2)CCN1C(=O)c1cccs1` [CBK289629], `O=C(CC[C@@H]1CNC(=O)[C@@H]2C[C@H](NC(=O)c3cccc(F)c3)CN12)Nc1ccccc1` [CBK289008] is lower in viability at 28.5 h, 10 µM: 97.2% for the first, 83.9% for the second.

Compared with `CC(=O)N1CCc2sccc2C1c1ccc(NC(=O)c2ccco2)cc1` (centres unmarked) [CBK286199], `CC(=O)c1ccc(NC(=O)NNS(=O)(=O)c2ccc(F)cc2)cc1` [CBK266944] is higher in viability at 28.5 h, 10 µM: 102% for the first, 109% for the second.

First: Cc1ccc(C(=O)Nc2ncn(CC(=O)N3CCCCCC3)n2)s1 [CBK304951]
Second: Cc1nc2ccc(C(=O)N3CCN(C4CCCCC4)C(=O)C3)cc2[nH]1 [CBK282131]
The viability at 28.5 h, 10 µM of the first is higher: 98.2% for the first, 86.5% for the second.

First: O=C1CN(C(=O)NCc2cccc(C(F)(F)F)c2)CCN1 [CBK155850]
Second: O=C(NC1CCN(CC(F)(F)F)C1=O)c1cc(Cl)ccn1 (centres unmarked) [CBK305223]
The viability at 28.5 h, 10 µM of the first is higher: 105% for the first, 98.6% for the second.

Going from `COCC1=C(C(=O)OC)[C@H](c2ccc(F)c(F)c2)N(C(=O)NCCCN2CCC(c3cccc(NC(C)=O)c3)CC2)C(=O)N1` [CBK051451C] to `O=C(NCCCN1CCOCC1)Nc1ccccc1F` [CBK269233], the viability at 28.5 h, 10 µM falls from 93.5% to 88.6%.

Going from `c1ccc(-c2ccno2)c(OCc2ccc(-c3nccnc3-c3nnn[nH]3)cc2)c1` [CBK050817] to `c1ccc(-c2nnc(CSc3nnc(-c4ccncc4)[nH]3)o2)cc1` [CBK269962], the viability at 28.5 h, 10 µM rises from 93.6% to 94.9%.

First: CCOC(=O)C1(C2CCCCC2)CCN(C(=O)c2cccnc2)CC1 [CBK137104T]
Second: CCn1c(=O)n(CC(=O)NC2CCCCC2)c2cccnc21 [CBK283810]
The viability at 28.5 h, 10 µM of the first is higher: 95.4% for the first, 83.6% for the second.

First: CCOc1ccc(N2C(=O)CC(Nc3cc(C(=O)O)ccc3C)C2=O)cc1 (centres unmarked) [CBK296651]
Second: COc1ccc(S(=O)(=O)N2CC[C@H]3NC(=O)N(c4ccc(C(C)C)cc4)C(=O)[C@H]32)cc1 [CBK289290]
The viability at 28.5 h, 10 µM of the first is lower: 97.1% for the first, 107% for the second.

First: CC(=O)Nc1ccc(NCc2cc(Cl)ccc2OCc2ccc(Cl)cc2Cl)cc1 [CBK078179]
Second: Cc1ccc(OCC(=O)Nc2ccc3c(c2)oc2ccccc23)cc1[N+](=O)[O-] [CBK266036]
The viability at 28.5 h, 10 µM of the first is lower: 90.8% for the first, 100% for the second.

First: Nc1nc(SCC(=O)NCCCO)nc2sc3c(c12)CCCC3 [CBK057958]
Second: CC(=O)Nc1cccc(-c2cnc(N)c(N3CCN(CCN(C)C)CC3)n2)c1 [CBK063472]
The viability at 28.5 h, 10 µM of the first is lower: 87.8% for the first, 91.1% for the second.

Going from `O=C(Nc1ccc2[nH]c(C3CCCCC3)nc2c1)C1CCCCC1` [CBK020680] to `Cc1noc(C)c1CC(=O)N1[C@H]2CCCCCN(C)[C@@]2(C)C[C@H]1c1ccccc1` [CBK286094], the viability at 28.5 h, 10 µM falls from 87.7% to 85.8%.

Compared with `COC(=O)[C@H]1CN(C(=O)c2scnc2C)C[C@@H]1c1ccc(F)cc1` [CBK283520], `CN1CCN(C(=O)COc2ccc(S(=O)(=O)Nc3ccc(F)cc3)cc2)CC1` [CBK268454] is lower in viability at 28.5 h, 10 µM: 104% for the first, 94.5% for the second.

Compared with `Cc1nn(C)cc1CN1CCN(C(=S)NCCc2ccccc2)CC1` [CBK267069], `C=CCn1cc(CN2CCCC(O)(c3ccc(F)cc3)CC2)c(C)n1` (centres unmarked) [CBK285144] is lower in viability at 28.5 h, 10 µM: 98.4% for the first, 92% for the second.

Compared with `CCCC(=O)c1ccc(S(=O)(=O)N2CCCN(Cc3ccc(OC)c(F)c3)CC2)cc1` [CBK062926], `CN1C(=O)c2ccccc2C(O)C2(C)CN(Cc3ccccc3)CC12` (centres unmarked) [CBK282849] is higher in viability at 28.5 h, 10 µM: 93.7% for the first, 108% for the second.

Compared with `Cc1ccsc1C(=O)N1CCC(n2cc(C(C)(C)O)nn2)CC1` [CBK307069], `O=C(O)C1Nc2c(C(=O)N3CCOCC3)cccc2C2C=CCC12` (centres unmarked) [CBK275006] is lower in viability at 28.5 h, 10 µM: 110% for the first, 104% for the second.

First: Nc1ncc(-c2ccncc2)nc1NCC1CCOCC1 [CBK063816]
Second: N#Cc1nc(-c2ccccc2F)oc1NCCCN1CCOCC1 [CBK265881]
The viability at 28.5 h, 10 µM of the first is lower: 105% for the first, 107% for the second.

Going from `O=C1COc2ccccc2C/C=C/CC2(CCN(C(=O)c3c[nH]cn3)CC2)C(=O)NCCN1` [CBK291990] to `O=C(NC(=S)Nc1ccc2c(c1)Cc1ccccc1-2)c1cc([N+](=O)[O-])ccc1N1CCOCC1` [CBK268726], the viability at 28.5 h, 10 µM rises from 98.3% to 104%.

Going from `CCn1c(SCC(=O)N/N=C/C(C)=C/c2ccccc2)nc2ccccc21` [CBK263178] to `CC(NC(=O)c1ccccc1Cn1cccn1)c1ccccn1` (centres unmarked) [CBK281374], the viability at 28.5 h, 10 µM falls from 107% to 86.3%.

First: O=C1/C(=N\O)c2cc(Cl)ccc2N1Cc1ccccc1 [CBK288468]
Second: COc1ccc(CC(=O)NC(c2nnc3ccccn23)C(C)C)cc1 (centres unmarked) [CBK304607]
The viability at 28.5 h, 10 µM of the first is higher: 91.5% for the first, 89.4% for the second.

Going from `CCc1nc2ccc(C(=O)Nc3ccc4c(c3)OCC(=O)N4)cn2c1N(C)CC` [CBK145521] to `OCc1c(-c2ccc(F)cc2)[nH]c2ncccc12` [CBK283328], the viability at 28.5 h, 10 µM falls from 96.8% to 86.5%.

First: Cc1cc(CS(=O)(=O)N2CCOCC2c2cccc(F)c2)no1 (centres unmarked) [CBK304093]
Second: COc1cccc(CC2(C#N)CC2)c1 [CBK003907]
The viability at 28.5 h, 10 µM of the first is higher: 95.4% for the first, 87.5% for the second.
